Reference: patent publication US20210290732A1, “GLP-1R and GCGR Agonists, Formulations, and Methods of Use” (Spitfire Pharma LLC, priority 2020, published 2021)
“And” between values parts separate entries of the source, which are not always exact repeats. Identical values can stand only once. Like-named read-outs stand apart in the source and are kept apart here. Blank lines part the entries; values can stand above or below the compound they belong to.

Legend:
[1] = target: GCGR (Homo sapiens, UniProt P47871); test: cAMP receptor activation assay, human GCGR cloned into CHO cells (DiscoverX LeadHunter / cAMP Hunter); type: cell-based; set-up: host or cells: CHO-K1; conditions: for EC50: cAMP, CHO cells
GCGR, sequence (P47871 26-477): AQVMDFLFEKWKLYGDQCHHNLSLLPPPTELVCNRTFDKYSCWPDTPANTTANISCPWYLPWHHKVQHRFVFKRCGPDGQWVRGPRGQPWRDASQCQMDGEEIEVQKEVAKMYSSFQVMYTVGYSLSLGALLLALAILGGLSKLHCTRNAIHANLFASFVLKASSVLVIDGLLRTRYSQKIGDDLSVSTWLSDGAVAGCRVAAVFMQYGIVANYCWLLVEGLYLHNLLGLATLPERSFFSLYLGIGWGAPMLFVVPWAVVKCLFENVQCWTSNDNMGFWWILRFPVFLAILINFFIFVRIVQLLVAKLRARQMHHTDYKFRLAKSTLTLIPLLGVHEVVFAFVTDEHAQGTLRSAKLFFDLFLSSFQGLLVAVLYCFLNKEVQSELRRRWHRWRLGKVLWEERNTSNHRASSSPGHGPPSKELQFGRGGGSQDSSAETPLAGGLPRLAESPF

[2] = target: T1, human GLP-1R (Homo sapiens, UniProt P43220); test: cAMP receptor activation assay, human GLP-1R cloned into CHO cells (DiscoverX LeadHunter / cAMP Hunter); type: cell-based; conditions: for Selectivity Ratio GLP-1R vs GCGR: SR = GCGR EC50/GLP-1 EC50, 0.1% BSA
T1 construct: host or cells: CHO-K1
T1 sequence (P43220 24-463): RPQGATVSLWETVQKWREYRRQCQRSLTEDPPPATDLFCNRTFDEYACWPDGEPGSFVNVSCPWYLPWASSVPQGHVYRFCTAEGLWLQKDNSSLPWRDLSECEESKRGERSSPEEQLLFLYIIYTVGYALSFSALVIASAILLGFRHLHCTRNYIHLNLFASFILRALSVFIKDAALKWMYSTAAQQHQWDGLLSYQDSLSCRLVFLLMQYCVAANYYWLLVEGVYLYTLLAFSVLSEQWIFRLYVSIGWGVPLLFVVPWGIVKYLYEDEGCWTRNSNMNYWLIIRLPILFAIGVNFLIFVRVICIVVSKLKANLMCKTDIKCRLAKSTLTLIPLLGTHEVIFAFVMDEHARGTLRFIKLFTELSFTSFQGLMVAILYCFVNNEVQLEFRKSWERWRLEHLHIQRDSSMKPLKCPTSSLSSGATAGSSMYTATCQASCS

[3] = test system: DIO-NASH mice; test: DIO-NASH mouse study, 12 weeks of QD dosing; type: in vivo
Method: All mice entering the experiment have been pre-biopsied, stratified based on liver biopsy (only animals with fibrosis 1 or above and steatosis 2 or above are included) animals stratified into groups based on Col1a1 immunostaining. […] Body weight (BW) was measured daily for the entire study period, food intake daily for the first 14 days then weekly until study end. Terminal plasma was measured for ALT/AST/TG/TC levels. Terminal liver removal and sampling was carried out for pre to post NAFLD Activity Score (NAS; HE staining) including Fibrosis Stage (Picrosirius red, PSR). Terminal histology was carried out for steatosis, Col1a1 and galectin-3 quantitation. Terminal liver workup included TG+TC (extraction and measurement). Terminal liver biopsies were set up in: 1) 4% PFA for histology, 2) fresh frozen liver for biochemistry, 3) fresh frozen liver for RNA extraction and RNAseq.

[4] = CMC of Polysorbate 80 in F58 buffer pH 7.7 with added ALT-801 by surface tensiometry; type: physicochemical
Source text: CMC shifts are simply calculated as CMC in the presence of the ALT-801 less the CMC for the surfactant alone in solution.

[5] = cAMP, CHO cells, 0.1% BSA containing buffers, read-out: pEC50 (SE) hu GLP-1 (converted)
[6] = 0.1% OVA containing buffers, read-out: EC50 hGCGR

Compound: CCCCCCCCCCCCO[C@@H]1O[C@H](C(=O)O)[C@@H](O[C@H]2O[C@H](C(=O)NCCCC[C@H](NC(=O)[C@@H](NC(=O)[C@H](Cc3ccccc3)NC(=O)[C@H](CCC(=O)O)NC(=O)[C@@H]3CCCCNC(=O)CC[C@H](NC(=O)[C@H](CC(=O)O)NC(=O)[C@H](CC(C)C)NC(=O)[C@H](Cc4ccc(O)cc4)NC(=O)[C@H](CCCCN)NC(=O)[C@H](CO)NC(=O)[C@H](Cc4ccc(O)cc4)NC(=O)[C@H](CC(=O)O)NC(=O)[C@H](CO)NC(=O)[C@@H](NC(=O)[C@H](Cc4ccccc4)NC(=O)[C@@H](NC(=O)CNC(=O)[C@H](CCC(N)=O)NC(=O)C(C)(C)NC(=O)[C@@H](N)Cc4c[nH]cn4)[C@@H](C)O)[C@@H](C)O)C(=O)N[C@@H](CCC(N)=O)C(=O)N[C@@H](C)C(=O)N[C@@H](C)C(=O)N3)[C@@H](C)CC)C(=O)N[C@@H](Cc3c[nH]c4ccccc34)C(=O)N[C@@H](CC(C)C)C(=O)N[C@@H](CC(C)C)C(=O)N[C@@H](CCC(N)=O)C(=O)N[C@H](C(N)=O)[C@@H](C)O)[C@@H](O)[C@H](O)[C@H]2O)[C@H](O)[C@H]1O [analogue 7]
- EC50 ([1]; 0.1% BSA containing buffers, read-out: pEC50 (SE) huGCGR (converted)): 0.0148 nM
- EC50 [2]: 0.0501 nM

Compound: CCCCCCCCCCCCCCO[C@@H]1O[C@H](C(=O)NCCCC[C@H](N)C(=O)NCCCC[C@H](NC(=O)[C@@H](NC(=O)[C@H](Cc2ccccc2)NC(=O)[C@H](CCC(=O)O)NC(=O)[C@@H]2CCCCNC(=O)CC[C@H](NC(=O)[C@H](CC(=O)O)NC(=O)[C@H](CC(C)C)NC(=O)[C@H](Cc3ccc(O)cc3)NC(=O)[C@H](CCCCN)NC(=O)[C@H](CO)NC(=O)[C@H](Cc3ccc(O)cc3)NC(=O)[C@H](CC(=O)O)NC(=O)[C@H](CO)NC(=O)[C@@H](NC(=O)[C@H](Cc3ccccc3)NC(=O)[C@@H](NC(=O)CNC(=O)[C@H](CCC(N)=O)NC(=O)C(C)(C)NC(=O)[C@@H](N)Cc3c[nH]cn3)[C@@H](C)O)[C@@H](C)O)C(=O)N[C@@H](CCC(N)=O)C(=O)N[C@@H](C)C(=O)N[C@@H](C)C(=O)N2)[C@@H](C)CC)C(=O)N[C@@H](Cc2c[nH]c3ccccc23)C(=O)N[C@@H](CC(C)C)C(=O)N[C@@H](CC(C)C)C(=O)N[C@@H](CCC(N)=O)C(=O)N[C@H](C(N)=O)[C@@H](C)O)[C@@H](O)[C@H](O)[C@H]1O [analogue 13]
- Selectivity Ratio (SR=GCGR EC50/GLP-1 EC50) [1]: 5
- Selectivity Ratio GLP-1R vs GCGR [2]: 5
- EC50 [2, 5]: 0.0372 nM

Compound: CCCCCCCCCCCCCCO[C@@H]1O[C@H](C(=O)N[C@@H](CCC(=O)NCCCC[C@H](NC(=O)[C@@H](NC(=O)[C@H](Cc2ccccc2)NC(=O)[C@H](CCC(=O)O)NC(=O)[C@@H]2CCCCNC(=O)CC[C@H](NC(=O)[C@H](CC(=O)O)NC(=O)[C@H](CC(C)C)NC(=O)[C@H](Cc3ccc(O)cc3)NC(=O)[C@H](CCCCN)NC(=O)[C@H](CO)NC(=O)[C@H](Cc3ccc(O)cc3)NC(=O)[C@H](CC(=O)O)NC(=O)[C@H](CO)NC(=O)[C@@H](NC(=O)[C@H](Cc3ccccc3)NC(=O)[C@@H](NC(=O)CNC(=O)[C@H](CCC(N)=O)NC(=O)C(C)(C)NC(=O)[C@@H](N)Cc3c[nH]cn3)[C@@H](C)O)[C@@H](C)O)C(=O)N[C@@H](CCC(N)=O)C(=O)N[C@@H](C)C(=O)N[C@@H](C)C(=O)N2)[C@@H](C)CC)C(=O)N[C@@H](Cc2c[nH]c3ccccc23)C(=O)N[C@@H](CC(C)C)C(=O)N[C@@H](CC(C)C)C(=O)N[C@@H](CCC(N)=O)C(=O)N[C@H](C(N)=O)[C@@H](C)O)C(=O)O)[C@@H](O)[C@H](O)[C@H]1O [analogue 14]
- GCGR activation potency (vs 4) [1]: significantly weakened GCGR activation potency
- Selectivity Ratio GLP-1R vs GCGR [2]: 2
- EC50 [2, 5]: 0.0427 nM

- EC50 [1, 6]: 0.065 nM
- EC50 ([2]; cAMP, CHO cells, 0.1% OVA containing buffers, read-out: pEC50 (SE) hu GLP-1 (converted)): 0.038 nM
Compound: CC[C@H](C)[C@H](NC(=O)[C@H](Cc1ccccc1)NC(=O)[C@H](CCC(=O)O)NC(=O)[C@@H]1CCCCNC(=O)CC[C@H](NC(=O)[C@H](CC(=O)O)NC(=O)[C@H](CC(C)C)NC(=O)[C@H](Cc2ccc(O)cc2)NC(=O)[C@H](CCCCN)NC(=O)[C@H](CO)NC(=O)[C@H](Cc2ccc(O)cc2)NC(=O)[C@H](CC(=O)O)NC(=O)[C@H](CO)NC(=O)[C@@H](NC(=O)[C@H](Cc2ccccc2)NC(=O)[C@@H](NC(=O)CNC(=O)[C@H](CCC(N)=O)NC(=O)C(C)(C)NC(=O)[C@@H](N)Cc2c[nH]cn2)[C@@H](C)O)[C@@H](C)O)C(=O)N[C@@H](CCC(N)=O)C(=O)N[C@@H](C)C(=O)N[C@@H](C)C(=O)N1)C(=O)N[C@@H](CCCCNC(=O)[C@H]1O[C@@H](OCCCCCCCCCCCCCCCC(=O)O)[C@H](O)[C@@H](O)[C@@H]1O)C(=O)N[C@@H](Cc1c[nH]c2ccccc12)C(=O)N[C@@H](CC(C)C)C(=O)N[C@@H](CC(C)C)C(=O)N[C@@H](CCC(N)=O)C(=O)N[C@H](C(N)=O)[C@@H](C)O [analogue 15]

- EC50 [1, 6]: 0.086 nM
- EC50 ([2]; 0.1% BSA in assay buffer, read-out: EC50 GLP-1R): 1.27 nM
Compound: CC[C@H](C)[C@H](NC(=O)[C@H](Cc1ccccc1)NC(=O)[C@H](CCC(=O)O)NC(=O)[C@@H]1CCCCNC(=O)CC[C@H](NC(=O)[C@H](CC(=O)O)NC(=O)[C@H](CC(C)C)NC(=O)[C@H](Cc2ccc(O)cc2)NC(=O)[C@H](CCCCN)NC(=O)[C@H](CO)NC(=O)[C@H](Cc2ccc(O)cc2)NC(=O)[C@H](CC(=O)O)NC(=O)[C@H](CO)NC(=O)[C@@H](NC(=O)[C@H](Cc2ccccc2)NC(=O)[C@@H](NC(=O)CNC(=O)[C@H](CCC(N)=O)NC(=O)C(C)(C)NC(=O)[C@@H](N)Cc2c[nH]cn2)[C@@H](C)O)[C@@H](C)O)C(=O)N[C@@H](CCC(N)=O)C(=O)N[C@@H](C)C(=O)N[C@@H](C)C(=O)N1)C(=O)N[C@@H](CCCCNC(=O)[C@H]1O[C@@H](OCCCCCCCCCCCCCCCCCC(=O)O)[C@H](O)[C@@H](O)[C@@H]1O)C(=O)N[C@@H](Cc1c[nH]c2ccccc12)C(=O)N[C@@H](CC(C)C)C(=O)N[C@@H](CC(C)C)C(=O)N[C@@H](CCC(N)=O)C(=O)N[C@H](C(N)=O)[C@@H](C)O [analogue 16]

Compound: CSc1ccc(C(=O)/C=C/c2cc(C)c(OC(C)(C)C(=O)O)c(C)c2)cc1 [elafibranor]
- body weight compared to NASH control (p≤0.001) ([3]; ALT-801 5 and 10 nmol/kg, elafibranor 78 μmol/kg, semaglutide 10 nmol/kg): statistically significantly decreased body weight
- NAFLD activity score (NAS) reduction compared to the start of treatment ([3]; NASH mice, 78 μmol/kg PO QD, 12 weeks): 42%
- expression of cell death genes vs NASH vehicle control ([3]; NASH mice, liver RNAseq): No statistical differences
- expression of genes affecting fat usage and transport vs NASH vehicle control ([3]; NASH mice, liver RNAseq): significantly lower GPAT2 (p<0.001) and GPAT4 (p<0.001)
- expression of liver inflammation genes (FOSB, JUN, TLR4) vs NASH vehicle control ([3]; NASH mice, liver RNAseq): No statistically significant changes
- number of differentially expressed genes (liver RNA sequencing) ([3]; NASH mice, high dose ALT-801, elafibranor, semaglutide): ~5800

Compound: Polysorbate 80
- CMC Shift Due to ALT-801 ([4]; 5.0 mg/ml ALT-801): 5.16 mg/mL
- Extent of Interaction mg PS80/mg ALT-801 ([4]; 5.0 mg/ml ALT-801): 1.03 mg/mg
- Extent of Interaction moles PS80/molesALT-801 ([4]; 5.0 mg/ml ALT-801): 3.05 mole/mole
- CMC Shift Due to ALT-801 ([4]; 10.0 mg/ml ALT-801): 10.32 mg/mL
- Extent of Interaction mg PS80/mg ALT-801 ([4]; 10.0 mg/ml ALT-801): 1.03 mg/mg
- Extent of Interaction moles PS80/molesALT-801 ([4]; 10.0 mg/ml ALT-801): 3.05 mole/mole
- Polysorbate 80 CMC Value 5.0 mg/ml ALT-801, Average ([4]; F58 buffer pH 7.7, 5.0 mg/ml ALT-801): 5.34 mg/mL
- Polysorbate 80 CMC Value 5.0 mg/ml ALT-801 ([4]; F58 buffer pH 7.7, 5.0 mg/ml ALT-801, single test): 5.35 mg/mL and 5.33 mg/mL
- Polysorbate 80 CMC Value 10.0 mg/ml ALT-801, Average ([4]; F58 buffer pH 7.7, 10.0 mg/ml ALT-801): 10.50 mg/mL
- Polysorbate 80 CMC Value 10.0 mg/ml ALT-801 ([4]; F58 buffer pH 7.7, 10.0 mg/ml ALT-801, single test): 10.49 mg/mL and 10.50 mg/mL
- Polysorbate 80 CMC Valve No ALT-801, Average ([4]; F58 buffer pH 7.7, no ALT-801): 0.183 mg/mL
- Polysorbate 80 CMC Valve No ALT-801 ([4]; F58 buffer pH 7.7, no ALT-801, single test): 0.182 mg/mL and 0.183 mg/mL
- Extent of Interaction mg PS80/mg ALT-801 ([4]; […] ALT-801): 1.03 mg/mg
- Extent of Interaction moles PS80/molesALT-801 ([4]; […] ALT-801): 3.05 mole/mole
